Data published in patent US11109593B2, “Isoxazolin-5-one derivative and herbicide containing same as active ingredient” (HOKKO CHEMICAL INDUSTRY CO., LTD., priority 2017, dated 2021).

What follows are compounds tested on Chenopodium album (assay: Test Example 4: herbicidal effect test by treatment of leave and stem in dry field farming (seven days after seeding)). Details: 120 g/10a active ingredient; emulsion sprayed seven days after seeding; evaluated 14 days after treatment.
Assay type: in vivo
Outline: (§1)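 Duplicate pots were scored 14 days post-spray by dry weight, herbicidal rate = {1 − treated/untreated average dry weight} × 100. The water-diluted emulsion, equivalent to 120 g active ingredient per 10 ares in 100 L, was applied seven days after sowing 20 seeds each into the upper 1 cm of alluvial soil.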
`CCCC(C)n1oc(=O)c(Cc2ccccc2N(C(=O)C2CC2)S(=O)(=O)C(F)(F)F)c1C` (centres unmarked) [Compound 1-408] was tested, and the “herbicidal effect (herbicidal rate), Chenopodium album” value was 70%. In the case of `Cc1c(Cc2ccccc2NS(=O)(=O)C(F)(F)F)c(=O)on1Cc1ccc(F)cc1` [Compound 1-183], the “herbicidal effect (herbicidal rate), Chenopodium album” value is reported as 50%.

The compounds below were run on southern crabgrass in the same assay as above. Details: 120 g/10a active ingredient; emulsion sprayed seven days after seeding; evaluated 14 days after treatment.
Assay type: in vivo
Outline: as §1
With `CCCC(C)n1oc(=O)c(Cc2ccccc2N(C(=O)C2CC2)S(=O)(=O)C(F)(F)F)c1C` (centres unmarked) [Compound 1-408] the “herbicidal effect (herbicidal rate), southern crabgrass” value was 90%. For `Cc1c(Cc2ccccc2NS(=O)(=O)C(F)(F)F)c(=O)on1Cc1ccc(F)cc1` [Compound 1-183], the “herbicidal effect (herbicidal rate), southern crabgrass” value was 50%.

What follows are compounds tested on Echinochloa crus-galli in the same assay as above. Details: 120 g/10a active ingredient; emulsion sprayed seven days after seeding; evaluated 14 days after treatment.
Assay type: in vivo
Outline: as §1
For `CCCC(C)n1oc(=O)c(Cc2ccccc2N(C(=O)C2CC2)S(=O)(=O)C(F)(F)F)c1C` (centres unmarked) [Compound 1-408], the “herbicidal effect (herbicidal rate), Echinochloa crus-galli” value was 90%. For `Cc1c(Cc2ccccc2NS(=O)(=O)C(F)(F)F)c(=O)on1Cc1ccc(F)cc1` [Compound 1-183], the “herbicidal effect (herbicidal rate), Echinochloa crus-galli” value was 90%.

The compounds below were run on Amaranthus viridis in the same assay as above. Details: 120 g/10a active ingredient; emulsion sprayed seven days after seeding; evaluated 14 days after treatment.
Assay type: in vivo
Outline: as §1
`CCCC(C)n1oc(=O)c(Cc2ccccc2N(C(=O)C2CC2)S(=O)(=O)C(F)(F)F)c1C` (centres unmarked) [Compound 1-408] was tested, and the “herbicidal effect (herbicidal rate), Amaranthus viridis” value was 40%. For `Cc1c(Cc2ccccc2NS(=O)(=O)C(F)(F)F)c(=O)on1Cc1ccc(F)cc1` [Compound 1-183], the “herbicidal effect (herbicidal rate), Amaranthus viridis” value was 40%.

Each compound was assayed on Chenopodium album (assay: Test Example 3: herbicidal effect test by treatment of dry field farming soil (one day after seeding)). Details: 120 g/10a active ingredient, evaluated 14 days after treatment.
Assay type: in vivo
Outline: (§2)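 Herbicidal rate (%) = {1 − treated/untreated mean plant dry weight} × 100, scored 14 days after spraying, duplicate pots per concentration. Emulsified compound was water-diluted and applied to soil surface one day post-seeding at 120 g a.i. per 10 ares.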
With `CCCC(C)n1oc(=O)c(Cc2ccccc2N(C(=O)C2CC2)S(=O)(=O)C(F)(F)F)c1C` (centres unmarked) [Compound 1-408] the “herbicidal rate, Chenopodium album” value was 60%. For `Cc1c(Cc2ccccc2NS(=O)(=O)C(F)(F)F)c(=O)on1Cc1ccc(F)cc1` [Compound 1-183], the “herbicidal rate, Chenopodium album” value was 60%.

The compounds below were run on southern crabgrass in the same assay as above. Details: 120 g/10a active ingredient, evaluated 14 days after treatment.
Assay type: in vivo
Outline: as §2
With `CCCC(C)n1oc(=O)c(Cc2ccccc2N(C(=O)C2CC2)S(=O)(=O)C(F)(F)F)c1C` (centres unmarked) [Compound 1-408] the “herbicidal rate, southern crabgrass” value was 100%. In the case of `Cc1c(Cc2ccccc2NS(=O)(=O)C(F)(F)F)c(=O)on1Cc1ccc(F)cc1` [Compound 1-183], the “herbicidal rate, southern crabgrass” value is reported as 90%.

These compounds were tested on Echinochloa crus-galli in the same assay as above. Details: 120 g/10a active ingredient, evaluated 14 days after treatment.
Assay type: in vivo
Outline: as §2
In the case of `CCCC(C)n1oc(=O)c(Cc2ccccc2N(C(=O)C2CC2)S(=O)(=O)C(F)(F)F)c1C` (centres unmarked) [Compound 1-408], the “herbicidal rate, Echinochloa crus-galli” value is reported as 100%. `Cc1c(Cc2ccccc2NS(=O)(=O)C(F)(F)F)c(=O)on1Cc1ccc(F)cc1` [Compound 1-183] was tested, and the “herbicidal rate, Echinochloa crus-galli” value was 90%.

What follows are compounds tested on Amaranthus viridis in the same assay as above. Details: 120 g/10a active ingredient, evaluated 14 days after treatment.
Assay type: in vivo
Outline: as §2
With `CCCC(C)n1oc(=O)c(Cc2ccccc2N(C(=O)C2CC2)S(=O)(=O)C(F)(F)F)c1C` (centres unmarked) [Compound 1-408] the “herbicidal rate, Amaranthus viridis” value was 80%. In the case of `Cc1c(Cc2ccccc2NS(=O)(=O)C(F)(F)F)c(=O)on1Cc1ccc(F)cc1` [Compound 1-183], the “herbicidal rate, Amaranthus viridis” value is reported as 50%.

Each compound was assayed on broad leaf weeds (Lindernia pyxidaria and Monochoria vaginalis) (assay: Test Example 2: herbicidal effect test by treatment during growing period in paddy rice cultivation (seven days after seeding)). Details: Lindernia pyxidaria, 120 g/10a active ingredient, assessed 14 days after treatment, dry weight vs untreated area.
Assay type: in vivo
Outline: (§3)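 Emulsion formulations, diluted in water, applied dropwise to flooded pots (about 3 cm water) 7 days post-seeding at 120 g a.i./10 ares. Weeds sown 30 seeds each, 0–1 cm deep in puddled paddy soil; greenhouse. Readout: % reduction in plant dry weight vs untreated, day 14, duplicates.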
In the case of `CCCC(C)n1oc(=O)c(Cc2ccccc2N(C(=O)C2CC2)S(=O)(=O)C(F)(F)F)c1C` (centres unmarked) [Compound 1-408], the “Herbicidal rate (%) Lindernia pyxidaria” value is reported as 70%. With `Cc1c(Cc2ccccc2NS(=O)(=O)C(F)(F)F)c(=O)on1Cc1ccc(F)cc1` [Compound 1-183] the “Herbicidal rate (%) Lindernia pyxidaria” value was 100%.

Same assay, conditions: Monochoria vaginalis, 120 g/10a active ingredient, assessed 14 days after treatment, dry weight vs untreated area
`CCCC(C)n1oc(=O)c(Cc2ccccc2N(C(=O)C2CC2)S(=O)(=O)C(F)(F)F)c1C` (centres unmarked) [Compound 1-408] was tested, and the “Herbicidal rate (%) Monochoria vaginalis” value was 60%. For `Cc1c(Cc2ccccc2NS(=O)(=O)C(F)(F)F)c(=O)on1Cc1ccc(F)cc1` [Compound 1-183], the “Herbicidal rate (%) Monochoria vaginalis” value was 100%.

What follows are compounds tested on Scirpus juncoides in the same assay as above. Details: 120 g/10a active ingredient, assessed 14 days after treatment, dry weight vs untreated area.
Assay type: in vivo
Outline: as §3
In the case of `CCCC(C)n1oc(=O)c(Cc2ccccc2N(C(=O)C2CC2)S(=O)(=O)C(F)(F)F)c1C` (centres unmarked) [Compound 1-408], the “Herbicidal rate (%) Scirpus juncoides” value is reported as 90%. With `Cc1c(Cc2ccccc2NS(=O)(=O)C(F)(F)F)c(=O)on1Cc1ccc(F)cc1` [Compound 1-183] the “Herbicidal rate (%) Scirpus juncoides” value was 100%.

What follows are compounds tested on Echinochloa crus-galli in the same assay as above. Details: 120 g/10a active ingredient, assessed 14 days after treatment, dry weight vs untreated area.
Assay type: in vivo
Outline: as §3
With `CCCC(C)n1oc(=O)c(Cc2ccccc2N(C(=O)C2CC2)S(=O)(=O)C(F)(F)F)c1C` (centres unmarked) [Compound 1-408] the “Herbicidal rate (%) Echinochloa crus-galli” value was 90%. In the case of `Cc1c(Cc2ccccc2NS(=O)(=O)C(F)(F)F)c(=O)on1Cc1ccc(F)cc1` [Compound 1-183], the “Herbicidal rate (%) Echinochloa crus-galli” value is reported as 80%.

What follows are compounds tested on broad leaf weeds (Lindernia pyxidaria and Monochoria vaginalis) (assay: Test Example 1: herbicidal effect test by treatment of rice paddy soil (immediately after seeding)). Details: Lindernia pyxidaria, 120 g/10a active ingredient, dry weight vs untreated area, 14 days after treatment.
Assay type: in vivo
Outline: (§4)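 Applied at 120 g a.i./10 ares as diluted emulsion dropped into flooded (~3 cm) paddy soil pots right after sowing seeds 0–1 cm deep; greenhouse, two replicates. At day 14, dry weight of treated versus untreated plants gives % herbicidal rate.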
In the case of `CCCC(C)n1oc(=O)c(Cc2ccccc2N(C(=O)C2CC2)S(=O)(=O)C(F)(F)F)c1C` (centres unmarked) [Compound 1-408], the “Herbicidal rate (%) Lindernia pyxidaria” value is reported as 80%. `Cc1c(Cc2ccccc2NS(=O)(=O)C(F)(F)F)c(=O)on1Cc1ccc(F)cc1` [Compound 1-183] was tested, and the “Herbicidal rate (%) Lindernia pyxidaria” value was 100%.

Same assay, conditions: Monochoria vaginalis, 120 g/10a active ingredient, dry weight vs untreated area, 14 days after treatment
For `CCCC(C)n1oc(=O)c(Cc2ccccc2N(C(=O)C2CC2)S(=O)(=O)C(F)(F)F)c1C` (centres unmarked) [Compound 1-408], the “Herbicidal rate (%) Monochoria vaginalis” value was 80%. For `Cc1c(Cc2ccccc2NS(=O)(=O)C(F)(F)F)c(=O)on1Cc1ccc(F)cc1` [Compound 1-183], the “Herbicidal rate (%) Monochoria vaginalis” value was 100%.

These compounds were tested on Scirpus juncoides in the same assay as above. Details: 120 g/10a active ingredient, dry weight vs untreated area, 14 days after treatment.
Assay type: in vivo
Outline: as §4
With `CCCC(C)n1oc(=O)c(Cc2ccccc2N(C(=O)C2CC2)S(=O)(=O)C(F)(F)F)c1C` (centres unmarked) [Compound 1-408] the “Herbicidal rate (%) Scirpus juncoides” value was 90%. For `Cc1c(Cc2ccccc2NS(=O)(=O)C(F)(F)F)c(=O)on1Cc1ccc(F)cc1` [Compound 1-183], the “Herbicidal rate (%) Scirpus juncoides” value was 100%.

Each compound was assayed on Echinochloa crus-galli in the same assay as above. Details: 120 g/10a active ingredient, dry weight vs untreated area, 14 days after treatment.
Assay type: in vivo
Outline: as §4
With `CCCC(C)n1oc(=O)c(Cc2ccccc2N(C(=O)C2CC2)S(=O)(=O)C(F)(F)F)c1C` (centres unmarked) [Compound 1-408] the “Herbicidal rate (%) Echinochloa crus-galli” value was 100%. In the case of `Cc1c(Cc2ccccc2NS(=O)(=O)C(F)(F)F)c(=O)on1Cc1ccc(F)cc1` [Compound 1-183], the “Herbicidal rate (%) Echinochloa crus-galli” value is reported as 100%.
